Test results taken from patent publication US20240108006A1, “PESTICIDALLY ACTIVE HETEROAROMATIC COMPOUNDS” (SYNGENTA CROP PROTECTION AG, priority 2021, published 2024).

Tests used:
Format in all cases: in vivo
[1] = tested on: Myzus persicae; assay: Example B5: Myzus persicae (green peach aphid), feeding/contact activity; settings: 144 h, application rate of 200 ppm, 6 days after infestation
Method: Example B5: Myzus persicae (Green Peach Aphid):Feeding/Contact Activity
Sunflower leaf discs were placed onto agar in a 24-well microtiter plate and sprayed with aqueous test solutions prepared from 10,000 ppm DMSO stock solutions. After drying, the leaf discs were infested with an aphid population of mixed ages. The samples were assessed for mortality 6 days after infestation.

[2] = tested on: Plutella xylostella; assay: Example B8: Plutella xylostella (diamond back moth), artificial diet 24-well, eggs; settings: 192 h, application rate of 200 ppm, 8 days after infestation, read-out: effect in at least one of the two categories (mortality or growth inhibition)
In short: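 Artificial diet in 24-well plates treated with aqueous dilutions of DMSO stock (10,000 ppm stock) and dried, then infested with Plutella eggs. Mortality and growth inhibition scored versus untreated samples 8 days after infestation.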

[3] = tested on: Chilo suppressalis; assay: Example B1: Chilo suppressalis (striped rice stemborer), artificial diet, L2 larvae; settings: 144 h, application rate of 200 ppm, 6 days after infestation, read-out: control in at least one of the three categories (mortality, anti-feedant effect, or growth inhibition)
In short: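 Artificial diet was treated with aqueous test solutions made from 10,000 ppm DMSO stocks, dried, then infested with L2 larvae (6-8 per well). Mortality, anti-feeding effect and growth inhibition were scored against untreated samples 6 days after infestation, and control was counted when any category exceeded untreated.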

[4] = tested on: Diabrotica balteata; assay: Example B2: Diabrotica balteata (corn root worm), maize sprouts, L2 larvae; settings: 96 h, application rate of 200 ppm, 4 days after infestation, read-out: control in at least one of the two categories (mortality or growth inhibition)
Method: Example B2: Diabrotica balteata (Corn Root Worm)
Maize sprouts placed onto an agar layer in 24-well microtiter plates were treated with aqueous test solutions prepared from 10,000 ppm DMSO stock solutions by spraying. After drying, the plates were infested with L2 larvae (6 to 10 per well). The samples were assessed for mortality and growth inhibition in comparison to untreated samples 4 days after infestation.
The following compounds gave an effect of at least 80% control in at least one of the two categories (mortality or growth inhibition) at an application rate of 200 ppm: […]

[5] = tested on: Spodoptera littoralis; assay: Example B9: Spodoptera littoralis (Egyptian cotton leaf worm), cotton leaf discs, L1 larvae; settings: foliar, 72 h, application rate of 200 ppm, 3 days after infestation, read-out: control in at least one of the three categories (mortality, anti-feedant effect, or growth inhibition)
In short: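 Cotton leaf discs on agar sprayed with aqueous test solutions from 10,000 ppm DMSO stocks, dried, then infested with five L1 larvae. Mortality, anti-feeding and growth inhibition scored against untreated samples 3 days after infestation.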

[6] = tested on: Myzus persicae; assay: Example B7: Myzus persicae (green peach aphid), intrinsic activity, sucrose solution 24-well; settings: 120 h, application rate of 12.5 ppm, 5 days after infestation, read-out: control (mortality)
Source text: Example B7: Myzus persicae (Green Peach Aphid). Intrinsic Activity
Test compounds prepared from 10,000 ppm DMSO stock solutions were applied by pipette into 24-well microtiter plates and mixed with sucrose solution. The plates were closed with a stretched Parafilm. A plastic stencil with 24 holes was placed onto the plate and infested pea seedlings were placed directly on the Parafilm. The infested plate was closed with a gel blotting paper and another plastic stencil and then turned upside down. The samples were assessed for mortality 5 days after infestation.
The following compounds gave an effect of at least 80% control at an application rate of 12.5 ppm: […]

C[C@H](NC(=O)Nc1ccnn1-c1ccc(Cl)cn1)c1ncnn1-c1ncccn1 [Example P17, 1-[2-(5-chloro-2-pyridyl)pyrazol-3-yl]-3-[(1S)-1-(2-pyrimidin-2-yl-1,2,4-triazol-3-yl)ethyl]urea]
≥ 80%: mortality at 200 ppm [1]

C[C@H](NC(=O)Nc1cc(C(F)(F)F)ncn1)c1ncnn1-c1ncccn1 [Example P32, 1-[(1S)-1-(2-pyrimidin-2-yl-1,2,4-triazol-3-yl)ethyl]-3-[6-(trifluoromethyl)pyrimidin-4-yl]urea]
≥ 80%: mortality at 200 ppm [1]

C[C@H](NC(=O)Nc1ccc(Br)cc1OC(F)F)c1ncnn1-c1ncccn1 [Example P58, 1-[4-bromo-2-(difluoromethoxy)phenyl]-3-[(1S)-1-(2-pyrimidin-2-yl-1,2,4-triazol-3-yl)ethyl]urea]
≥ 80%: percent effect (mortality or growth inhibition) at 200 ppm [2] | percent control (mortality, anti-feedant effect or growth inhibition) at 200 ppm [3] | mortality at 200 ppm [1] | percent control (mortality or growth inhibition) at 200 ppm [4] | percent control (mortality, anti-feedant effect or growth inhibition) at 200 ppm [5] | mortality at 12.5 ppm [6]

C[C@H](NC(=O)Nc1cc(C(F)(F)F)cc(C(F)(F)F)n1)c1ncnn1-c1ncccn1 [Example P91, 1-[4,6-bis(trifluoromethyl)-2-pyridyl]-3-[(1S)-1-(2-pyrimidin-2-yl-1,2,4-triazol-3-yl)ethyl]urea]
≥ 80%: mortality at 200 ppm [1]

C[C@H](NC(=O)Nc1cc(C(F)(F)F)n(C)n1)c1ncnn1-c1ncccn1 [Example P108, 1-[1-methyl-5-(trifluoromethyl)pyrazol-3-yl]-3-[(1S)-1-(2-pyrimidin-2-yl-1,2,4-triazol-3-yl)ethyl]urea]
≥ 80%: mortality at 200 ppm [1]

C[C@H](NC(=O)Nc1cc(OCc2cccc(Br)n2)c(Cl)cc1Cl)c1ncnn1-c1ncccn1 [Example P145, 1-[5-[(6-bromo-2-pyridyl)methoxy]-2,4-dichloro-phenyl]-3-[(1S)-1-(2-pyrimidin-2-yl-1,2,4-triazol-3-yl)ethyl]urea]
≥ 80%: mortality at 200 ppm [1]

COc1ccc(COc2cc(NC(=O)N[C@@H](C)c3ncnn3-c3ncccn3)c(Cl)cc2Cl)cc1F [Example P168, 1-[2,4-dichloro-5-[(3-fluoro-4-methoxy-phenyl)methoxy]phenyl]-3-[(1S)-1-(2-pyrimidin-2-yl-1,2,4-triazol-3-yl)ethyl]urea]
≥ 80%: mortality at 200 ppm [1]

Cc1cc(F)c(OS(C)(=O)=O)cc1NC(=O)N[C@@H](C)c1ncnn1-c1ncccn1 [Example P181, [2-fluoro-4-methyl-5-[[(1S)-1-(2-pyrimidin-2-yl-1,2,4-triazol-3-yl)ethyl]carbamoylamino]phenyl] methanesulfonate]
≥ 80%: percent control (mortality, anti-feedant effect or growth inhibition) at 200 ppm [3] | mortality at 200 ppm [1] | mortality at 12.5 ppm [6]

C[C@H](NC(=O)Nc1cc(C(C)(C)C#N)c(Cl)cc1F)c1ncnn1-c1ncccn1 [Example P202, 1-[4-chloro-5-(1-cyano-1-methyl-ethyl)-2-fluoro-phenyl]-3-[(1S)-1-(2-pyrimidin-2-yl-1,2,4-triazol-3-yl)ethyl]urea]
≥ 80%: percent effect (mortality or growth inhibition) at 200 ppm [2] | percent control (mortality, anti-feedant effect or growth inhibition) at 200 ppm [3] | mortality at 200 ppm [1] | percent control (mortality, anti-feedant effect or growth inhibition) at 200 ppm [5] | mortality at 12.5 ppm [6]

COc1cc(Cl)c(NC(=O)N[C@@H](C)c2ncnn2-c2ncccn2)cc1Cl [Example P204, 1-(2,5-dichloro-4-methoxy-phenyl)-3-[(1S)-1-(2-pyrimidin-2-yl-1,2,4-triazol-3-yl)ethyl]urea]
≥ 80%: mortality at 200 ppm [1]

C[C@H](NC(=O)Nc1cc2c(cc1Cl)C(=O)N(C)C2=O)c1ncnn1-c1ncccn1 [Example P207, 1-(6-chloro-2-methyl-1,3-dioxo-isoindolin-5-yl)-3-[(1S)-1-(2-pyrimidin-2-yl-1,2,4-triazol-3-yl)ethyl]urea]
≥ 80%: mortality at 200 ppm [1]

C[C@H](NC(=O)Nc1cc(OC(F)(F)F)c(Cl)cc1F)c1ncnn1-c1ncccn1 [Example P214, 1-[4-chloro-2-fluoro-5-(trifluoromethoxy)phenyl]-3-[(1S)-1-(2-pyrimidin-2-yl-1,2,4-triazol-3-yl)ethyl]urea]
≥ 80%: percent effect (mortality or growth inhibition) at 200 ppm [2] | percent control (mortality, anti-feedant effect or growth inhibition) at 200 ppm [3] | percent control (mortality or growth inhibition) at 200 ppm [4] | percent control (mortality, anti-feedant effect or growth inhibition) at 200 ppm [5] | mortality at 12.5 ppm [6]

C[C@H](NC(=O)Nc1cc(OC(F)(F)C(F)C(F)(F)F)c(Cl)cc1F)c1ncnn1-c1ncccn1 (stereo partly drawn) [Example P215, 1-[4-chloro-2-fluoro-5-(1,1,2,3,3,3-hexafluoropropoxy)phenyl]-3-[(1S)-1-(2-pyrimidin-2-yl-1,2,4-triazol-3-yl)ethyl]urea]
≥ 80%: percent effect (mortality or growth inhibition) at 200 ppm [2] | percent control (mortality, anti-feedant effect or growth inhibition) at 200 ppm [3] | percent control (mortality or growth inhibition) at 200 ppm [4] | percent control (mortality, anti-feedant effect or growth inhibition) at 200 ppm [5] | mortality at 12.5 ppm [6]

CC(C)Oc1cc(NC(=O)N[C@@H](C)c2ncnn2-c2ncccn2)c(Cl)cc1Cl [Example P236, 1-(2,4-dichloro-5-isopropoxy-phenyl)-3-[(1S)-1-(2-pyrimidin-2-yl-1,2,4-triazol-3-yl)ethyl]urea]
≥ 80%: percent effect (mortality or growth inhibition) at 200 ppm [2] | percent control (mortality, anti-feedant effect or growth inhibition) at 200 ppm [3] | percent control (mortality or growth inhibition) at 200 ppm [4] | percent control (mortality, anti-feedant effect or growth inhibition) at 200 ppm [5] | mortality at 12.5 ppm [6]

CC(NC(=O)Nc1cc(OC(F)(F)C(F)F)c(Cl)cc1Cl)c1nccnc1-c1ncccn1 (stereo not drawn) [Example P238, 1-[2,4-dichloro-5-(1,1,2,2-tetrafluoroethoxy)phenyl]-3-[1-(3-pyrimidin-2-ylpyrazin-2-yl)ethyl]urea]
≥ 80%: percent effect (mortality or growth inhibition) at 200 ppm [2] | percent control (mortality, anti-feedant effect or growth inhibition) at 200 ppm [3] | percent control (mortality or growth inhibition) at 200 ppm [4] | percent control (mortality, anti-feedant effect or growth inhibition) at 200 ppm [5] | mortality at 12.5 ppm [6]

C[C@H](NC(=O)Nc1cnc(C(F)(F)F)cc1Cl)c1ncnn1-c1ccc(C#N)cn1 [Example P257, 1-[4-chloro-6-(trifluoromethyl)-3-pyridyl]-3-[(1S)-1-[2-(5-cyano-2-pyridyl)-1,2,4-triazol-3-yl]ethyl]urea]
≥ 80%: percent effect (mortality or growth inhibition) at 200 ppm [2] | percent control (mortality, anti-feedant effect or growth inhibition) at 200 ppm [3] | percent control (mortality or growth inhibition) at 200 ppm [4] | percent control (mortality, anti-feedant effect or growth inhibition) at 200 ppm [5] | mortality at 12.5 ppm [6]

C[C@H](NC(=O)Nc1cc(OC(F)F)c(Cl)cc1Cl)c1ncnn1-c1ncccn1 [Example P272, 1-[2,4-dichloro-5-(difluoromethoxy)phenyl]-3-[(1S)-1-(2-pyrimidin-2-yl-1,2,4-triazol-3-yl)ethyl]urea]
≥ 80%: percent effect (mortality or growth inhibition) at 200 ppm [2] | percent control (mortality, anti-feedant effect or growth inhibition) at 200 ppm [3] | percent control (mortality or growth inhibition) at 200 ppm [4] | percent control (mortality, anti-feedant effect or growth inhibition) at 200 ppm [5] | mortality at 12.5 ppm [6]

Cc1nc([C@H](C)NC(=O)Nc2cc(OC(F)(F)C(F)F)c(Cl)cc2Cl)n(-c2ncccn2)n1 [Example P276, 1-[2,4-dichloro-5-(1,1,2,2-tetrafluoroethoxy)phenyl]-3-[(1S)-1-(5-methyl-2-pyrimidin-2-yl-1,2,4-triazol-3-yl)ethyl]urea]
≥ 80%: percent effect (mortality or growth inhibition) at 200 ppm [2] | percent control (mortality, anti-feedant effect or growth inhibition) at 200 ppm [3] | percent control (mortality or growth inhibition) at 200 ppm [4] | percent control (mortality, anti-feedant effect or growth inhibition) at 200 ppm [5] | mortality at 12.5 ppm [6]
